Data published in patent US11691949B2, “Quinoline sulfonamide compounds and their use as antibacterial agents” (OTAGO INNOVATION LIMITED, priority 2017, dated 2023).
In brackets after ≈: the same amount, converted by molar mass. Counter-ions that a name gives are not always drawn. Like-named read-outs stand apart in the source and are kept apart here.

Experiments:
Type in all cases: cell-based
S. uberis ATCC 19436 = assay: MIC by broth microdilution, S. uberis; conditions: Streptococcus uberis
Method in brief: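 This broth microdilution assay used S. uberis ATCC 19436 in Todd Hewitt Broth, with zinc sulphate heptahydrate added where required to a final 50 μM. Inhibitor concentration ranges came from two-fold serial dilutions in 96-well flat bottom plates at 200 μl. Approximately 5×10^5 cfu/mL cells were incubated for 24 h at 37° C. and 200 rpm. Wells were then read at OD600 on a Varioskan Flash reader.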

S. aureus ATCC 6538 = assay: MIC by broth microdilution, S. aureus; conditions: Staphylococcus aureus
Method in brief: (§1)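 Overnight cultures diluted to ~5×10^5 cfu/mL final; S. aureus in TSB and CAMHB, E. coli in LB and CAMHB, zinc sulphate to 50 μM final as required; two-fold serial dilutions. MIC = lowest concentration with no growth by OD600 after 24 h, 37° C, 200 rpm. MBC by Miles-Misra drop-plate viability count.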

E. coli ATCC 10596 = assay: MIC by broth microdilution, E. coli; conditions: Escherichia coli
Method in brief: as §1

[1] = ATCC19436, No Zinc, read-out: S. uberis ATCC 19436 MIC
[2] = ATCC19436, Zinc (50 μM), read-out: S. uberis ATCC 19436 MIC
[3] = ATCC6538, No Zinc, read-out: S. aureus ATCC 6538 MIC
[4] = ATCC6538, Zinc (50 μM), read-out: S. aureus ATCC 6538 MIC
[5] = ATCC 10536 / ATCC 10596, No Zinc, read-out: E. coli ATCC 10536 MIC
[6] = ATCC 10536 / ATCC 10596, Zinc (50 μM), read-out: E. coli ATCC 10536 MIC

| Compound | MIC (S. uberis ATCC 19436; [1]) [µg/mL] | MIC (S. uberis ATCC 19436; [2]) [µg/mL] | MIC (S. aureus ATCC 6538; [3]) [µg/mL] | MIC (S. aureus ATCC 6538; [4]) [µg/mL] | MIC (E. coli ATCC 10596; [5]) [µg/mL] | MIC (E. coli ATCC 10596; [6]) [µg/mL] | MIC (S. uberis ATCC 19436; ATCC19436, read-out: S. uberis ATCC 19436 MIC, No Zinc) [µg/mL] | MIC (S. uberis ATCC 19436; ATCC19436, read-out: S. uberis ATCC 19436 MIC, Zinc (50 μM)) [µg/mL] | MIC (S. aureus ATCC 6538; ATCC6538, read-out: S. aureus ATCC 6538 MIC, No Zinc) [µg/mL] | MIC (S. aureus ATCC 6538; ATCC6538, read-out: S. aureus ATCC 6538 MIC, Zinc (50 μM)) [µg/mL] | MIC (E. coli ATCC 10596; ATCC 10536 / ATCC 10596, read-out: E. coli ATCC 10536 MIC, No Zinc) [µg/mL] | MIC (E. coli ATCC 10596; ATCC 10536 / ATCC 10596, read-out: E. coli ATCC 10536 MIC, Zinc (50 μM)) [µg/mL] |
| --- | --- | --- | --- | --- | --- | --- | --- | --- | --- | --- | --- | --- |
| NCc1ccc2cccc(NS(=O)(=O)c3ccc(C(F)(F)F)cc3)c2n1 [ZDR184, N-(2-(Aminomethyl)quinolin-8-yl)-4-(trifluoromethyl)benzenesulfonamide] | 32 (≈ 83.9 µM) | 0.5 (≈ 1.31 µM) | 8 (≈ 21 µM) | 4 (≈ 10.5 µM) | 64 (≈ 168 µM) | 128 (≈ 336 µM) | – | – | – | – | – | – |
| CC(=O)NCc1ccc2cccc(NS(=O)(=O)c3ccc(C(F)(F)F)cc3)c2n1 [ZDR185, N-((8-((4-(Trifluoromethyl)phenyl)sulfonamido)quinolin-2-yl)methyl)acetamide] | > 256 | 0.125 (≈ 0.295 µM) | 256 (≈ 605 µM) | 32 (≈ 75.6 µM) | > 256 | > 256 | – | – | – | – | – | – |
| CC(C)(C)OC(=O)N=C(NCc1ccc2cccc(NS(=O)(=O)c3ccc(C(F)(F)F)cc3)c2n1)NC(=O)OC(C)(C)C [ZDR186, N-(2-(N,N′-Bis-Boc-Guanidinomethyl)quinolin-8-yl)-4-(trifluoromethyl)benzenesulfonamide] | > 256 | 0.25 (≈ 0.401 µM) | > 256 | > 256 | > 256 | > 256 | – | – | – | – | – | – |
| N/C(=N\[N+](=O)[O-])NCc1ccc2cccc(NS(=O)(=O)c3ccc(C(F)(F)F)cc3)c2n1 [ZDR188, (E)-N-(2-((2-Nitroguanidino)methyl)quinolin-8-yl)-4-(trifluoromethyl)benzenesulfonamide] | > 256 | 0.5 (≈ 1.07 µM) | > 256 | > 256 | > 256 | > 256 | – | – | – | – | – | – |
| CN(C)Cc1ccc2cccc(NS(=O)(=O)c3ccccc3Cl)c2n1 [ZDR190, 2-Chloro-N-(2-((dimethylamino)methyl)quinolin-8-yl)benzenesulfonamide] | 256 (≈ 681 µM) | 1 (≈ 2.66 µM) | > 256 | > 256 | > 256 | > 256 | – | – | – | – | – | – |
| CN(C)Cc1ccc2cccc(NS(=O)(=O)c3ccccc3OC(F)(F)F)c2n1 [ZDR191, N-(2-((Dimethylamino)methyl)quinolin-8-yl)-2-(trifluoromethoxy)benzenesulfonamide] | 256 (≈ 602 µM) | 0.125 (≈ 0.294 µM) | > 256 | > 256 | > 256 | > 256 | – | – | – | – | – | – |
| CN(C)Cc1ccc2cccc(NS(=O)(=O)N3CCOCC3)c2n1 [ZDR192, N-(2-((Dimethylamino)methyl)quinolin-8-yl)morpholine-4-sulfonamide] | > 256 | 1 (≈ 2.85 µM) | > 256 | > 256 | > 256 | > 256 | – | – | – | – | – | – |
| CN(C)Cc1ccc2cccc(NS(=O)(=O)N3CCCCC3)c2n1 [ZDR193, N-(2-((Dimethylamino)methyl)quinolin-8-yl)piperidine-1-sulfonamide] | 128 (≈ 367 µM) | 0.25 (≈ 0.717 µM) | > 256 | > 256 | > 256 | > 256 | – | – | – | – | – | – |
| CN(C)Cc1ccc2cccc(NS(=O)(=O)c3cnn(C)c3)c2n1 [ZDR194, N-(2-((Dimethylamino)methyl)quinolin-8-yl)-1-methyl-1H-pyrazole-4-sulfonamide] | > 256 | 4 (≈ 11.6 µM) | > 256 | > 256 | > 256 | > 256 | – | – | – | – | – | – |
| CN(C)Cc1ccc2cccc(NS(=O)(=O)c3cn(C)cn3)c2n1 [ZDR195, N-(2-((Dimethylamino)methyl)quinolin-8-yl)-1-methyl-1H-imidazole-4-sulfonamide] | > 256 | 32 (≈ 92.6 µM) | > 256 | > 256 | > 256 | > 256 | – | – | – | – | – | – |
| CN(C)Cc1ccc2cccc(NS(=O)(=O)c3cccc4nsnc34)c2n1 [ZDR196, N-(2-((Dimethylamino)methyl)quinolin-8-yl)benzo[c][1,2,5]thiadiazole-4-sulfonamide] | 256 (≈ 641 µM) | 0.0625 (≈ 0.156 µM) | > 256 | 32 (≈ 80.1 µM) | > 256 | > 256 | – | – | – | – | – | – |
| CN(C)Cc1ccc2cccc(NS(=O)(=O)c3ccccc3F)c2n1 [ZDR201, N-(2-((Dimethylamino)methyl)quinolin-8-yl)-2-fluorobenzenesulfonamide] | 128 (≈ 356 µM) | 0.0625 (≈ 0.174 µM) | > 256 | 32 (≈ 89 µM) | > 256 | > 256 | – | – | – | – | – | – |
| CN(C)Cc1ccc2cccc(NS(=O)(=O)c3ccccc3Br)c2n1 [ZDR202, 2-Bromo-N-(2-((dimethylamino)methyl)quinolin-8-yl)benzenesulfonamide] | 256 (≈ 609 µM) | 0.125 (≈ 0.297 µM) | 256 (≈ 609 µM) | > 256 | > 256 | > 256 | – | – | – | – | – | – |
| Cc1nc(C)c(S(=O)(=O)Nc2cccc3ccc(CN(C)C)nc23)s1 [ZDR203, N-(2-((Dimethylamino)methyl)quinolin-8-yl)-2,4-dimethylthiazole-5-sulfonamide] | 256 (≈ 680 µM) | 0.5 (≈ 1.33 µM) | > 256 | 64 (≈ 170 µM) | > 256 | > 256 | – | – | – | – | – | – |
| CN(C)Cc1ccc2cccc(NS(=O)(=O)N3CCCC3)c2n1 [ZDR204, N-(2-((Dimethylamino)methyl)quinolin-8-yl)pyrrolidine-1-sulfonamide] | 256 (≈ 765 µM) | 0.5 (≈ 1.5 µM) | > 256 | 256 (≈ 765 µM) | > 256 | > 256 | – | – | – | – | – | – |
| CN(C)CC(=O)NCc1ccc2cccc(NS(=O)(=O)c3ccc(C(F)(F)F)cc3)c2n1 [ZDR205, 2-(Dimethylamino)-N-((8-((4-(trifluoromethyl)phenyl)sulfonamido)quinolin-2-yl)methyl)acetamide] | 256 (≈ 549 µM) | 0.125 (≈ 0.268 µM) | 128 (≈ 274 µM) | 64 (≈ 137 µM) | > 256 | > 256 | – | – | – | – | – | – |
| CS(=O)(=O)NCc1ccc2cccc(NS(=O)(=O)c3ccc(C(F)(F)F)cc3)c2n1 [ZDR209, N-(2-(Methylsulfonamidomethyl)quinolin-8-yl)-4-(trifluoromethyl)benzenesulfonamide] | > 256 | 1 (≈ 2.18 µM) | > 256 | > 256 | > 256 | > 256 | – | – | – | – | – | – |
| O=S(=O)(NCc1ccc2cccc(NS(=O)(=O)c3ccc(C(F)(F)F)cc3)c2n1)c1ccccc1 [ZDR210, N-(2-(Phenylsulfonamidomethyl)quinolin-8-yl)-4-(trifluoromethyl)benzenesulfonamide] | > 256 | 0.25 (≈ 0.479 µM) | > 256 | > 256 | > 256 | > 256 | – | – | – | – | – | – |
| CN(C)CCCC(=O)NCc1ccc2cccc(NS(=O)(=O)c3ccc(C(F)(F)F)cc3)c2n1 [ZDR211, 4-(Dimethylamino)-N-((8-((4-(trifluoromethyl)phenyl)sulfonamido)quinolin-2-yl)methyl)butanamide trifluoroacetate] | – | – | – | – | – | – | 64 | 16 | 128 | 64 | 128 | 128 |
| CSc1ccc(S(=O)(=O)Nc2cccc3ccc(CN(C)C)nc23)cc1 [ZDR257, N-(2-((Dimethylamino)methyl)quinolin-8-yl)-4-(methylthio)benzenesulfonamide] | > 256 | 0.0625 (≈ 0.161 µM) | > 256 | > 256 | > 256 | > 256 | – | – | – | – | – | – |
| COc1ccc(S(=O)(=O)Nc2cccc3ccc(CN(C)C)nc23)cn1 [ZDR258, N-(2-((Dimethylamino)methyl)quinolin-8-yl)-6-methoxypyridine-3-sulfonamide] | 256 (≈ 687 µM) | 0.125 (≈ 0.336 µM) | > 256 | > 256 | > 256 | > 256 | – | – | – | – | – | – |
